The assay has as its target ROCK2 (Homo sapiens (Human), UniProt O75116). The experiment in a line: ROCK2 assay (peptide phosphorylation, LABCHIP 3000 Reader). The following applies: 5 μM ATP, 1.5 μM peptide substrate. The assay is classed as biochemical. Summed up: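 Human ROCK2 reaction in 20 mM HEPES pH 7.5, 20 mM MgCl2, 0.015% Brij-35, 4 mM DTT, with 5 μM ATP and 1.5 μM FITC-labelled peptide, DMSO <2%. Stopped with EDTA; phosphorylated and unphosphorylated peptide separated by microfluidic mobility shift. IC50 from dose-response curve fit.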
Chain of ROCK2 (O75116 whole entry, species assumed): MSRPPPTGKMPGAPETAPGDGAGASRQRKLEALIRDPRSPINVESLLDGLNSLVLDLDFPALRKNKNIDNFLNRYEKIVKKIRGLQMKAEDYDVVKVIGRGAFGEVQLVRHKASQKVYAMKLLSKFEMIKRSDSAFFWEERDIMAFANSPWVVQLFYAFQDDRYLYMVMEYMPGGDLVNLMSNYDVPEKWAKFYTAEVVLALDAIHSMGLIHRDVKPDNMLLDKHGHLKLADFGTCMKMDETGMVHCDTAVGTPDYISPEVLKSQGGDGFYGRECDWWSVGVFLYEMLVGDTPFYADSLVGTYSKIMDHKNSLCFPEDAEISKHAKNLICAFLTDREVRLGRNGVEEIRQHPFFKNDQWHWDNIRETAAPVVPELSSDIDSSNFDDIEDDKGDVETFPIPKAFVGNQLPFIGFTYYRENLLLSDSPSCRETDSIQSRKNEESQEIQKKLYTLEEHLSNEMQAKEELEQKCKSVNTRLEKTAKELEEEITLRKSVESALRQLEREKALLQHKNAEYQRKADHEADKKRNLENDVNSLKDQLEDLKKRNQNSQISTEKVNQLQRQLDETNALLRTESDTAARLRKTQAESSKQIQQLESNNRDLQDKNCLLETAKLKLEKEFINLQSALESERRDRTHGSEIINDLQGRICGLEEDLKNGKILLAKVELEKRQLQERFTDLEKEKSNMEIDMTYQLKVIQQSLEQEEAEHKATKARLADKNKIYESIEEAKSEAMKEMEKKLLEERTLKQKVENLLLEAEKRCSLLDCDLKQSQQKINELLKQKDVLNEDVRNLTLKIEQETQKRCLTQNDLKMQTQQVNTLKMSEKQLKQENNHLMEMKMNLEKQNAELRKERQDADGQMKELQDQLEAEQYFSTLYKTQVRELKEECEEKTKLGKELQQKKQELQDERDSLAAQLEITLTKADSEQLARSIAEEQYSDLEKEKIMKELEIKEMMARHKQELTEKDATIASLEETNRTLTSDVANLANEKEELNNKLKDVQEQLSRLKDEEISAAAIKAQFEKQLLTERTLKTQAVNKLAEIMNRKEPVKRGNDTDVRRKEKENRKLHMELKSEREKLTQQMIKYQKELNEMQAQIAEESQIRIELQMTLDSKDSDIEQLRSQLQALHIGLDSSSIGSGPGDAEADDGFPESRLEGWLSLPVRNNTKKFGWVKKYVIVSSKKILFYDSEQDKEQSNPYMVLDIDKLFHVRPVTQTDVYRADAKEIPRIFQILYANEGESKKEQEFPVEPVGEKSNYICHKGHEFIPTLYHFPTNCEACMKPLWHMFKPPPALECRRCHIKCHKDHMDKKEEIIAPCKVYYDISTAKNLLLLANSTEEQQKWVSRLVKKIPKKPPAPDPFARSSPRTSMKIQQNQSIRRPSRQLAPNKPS
In the case of `COc1cccc(Cn2c(CO)nn(-c3ccc(-c4cn[nH]c4)cc3)c2=O)c1F` [Example 160, 1-(4-(1H-pyrazol-4-yl)phenyl)-4-(2-fluoro-3-methoxybenzyl)-3-(hydroxymethyl)-1H-1,2,4-triazol-5(4H)-one], the IC50 lay within 250 to 2000 nM. In turn, `COc1cc(-n2nc(C)n(Cc3cccc(OC(F)F)c3)c2=O)ccc1-c1cn[nH]c1` [Example 100, 4-(3-(difluoromethoxy)benzyl)-1-(3-methoxy-4-(1H-pyrazol-4-yl)phenyl)-3-methyl-1H-1,2,4-triazol-5(4H)-one] registered an IC50 of 5 to 50 nM. The result for `COc1cc(-n2c(C)nn(Cc3cc(F)ccc3F)c2=O)ccc1-c1cn[nH]c1` [Example 68, 1-(2,5-difluorobenzyl)-4-(3-methoxy-4-(1H-pyrazol-4-yl)phenyl)-3-methyl-1H-1,2,4-triazol-5(4H)-one] reads 250 to 2000 nM.

`COc1cc(-n2cnn(Cc3cccc(F)c3)c2=O)ccc1-c1cn[nH]c1` [Example 7, 1-(3-fluorobenzyl)-4-(3-methoxy-4-(1H-pyrazol-4-yl)phenyl)-1H-1,2,4-triazol-5(4H)-one] had an IC50 of 50 to 250 nM.

In turn, `CC(c1ccccc1)n1cnn(-c2ccc(-c3cn[nH]c3)cc2)c1=O` (stereo not shown) [Example 22, 1-(4-(1H-pyrazol-4-yl)phenyl)-4-(1-phenylethyl)-1H-1,2,4-triazol-5(4H)-one] had an IC50 of less than 5 nM. As for `COc1cc(-n2nc(C)n(Cc3ccccc3F)c2=O)ccc1-c1cn[nH]c1` [Example 95, 4-(2-fluorobenzyl)-1-(3-methoxy-4-(1H-pyrazol-4-yl)phenyl)-3-methyl-1H-1,2,4-triazol-5(4H)-one], the IC50 lay in the range of 5 to 50 nM.

In turn, `CCc1cc(-n2nc(C)n(Cc3ccccc3F)c2=O)ccc1-c1cn[nH]c1` [Example 113, 1-(3-ethyl-4-(1H-pyrazol-4-yl)phenyl)-4-(2-fluorobenzyl)-3-methyl-1H-1,2,4-triazol-5(4H)-one] came in with an IC50 of 50 to 250 nM. As for `COc1cccc(Cn2nc(C)n(-c3ccc(-c4cn[nH]c4)cc3OC)c2=O)c1` [Example 64, 4-(2-methoxy-4-(1H-pyrazol-4-yl)phenyl)-1-(3-methoxybenzyl)-3-methyl-1H-1,2,4-triazol-5(4H)-one], the half-inhibitory concentration (IC50) is 250 to 2000 nM. The result for `COc1cccc(Cn2cnn(-c3ccc(-c4ccnc5[nH]ccc45)cc3)c2=O)c1` [Example 169, 1-(4-(1H-pyrrolo[2,3-b]pyridin-4-yl)phenyl)-4-(3-methoxybenzyl)-1H-1,2,4-triazol-5(4H)-one] reads less than 5 nM; that for `CC(c1ccccc1)n1ncn(-c2ccc(-c3cn[nH]c3)cc2)c1=O` (stereo not shown) [Example 15, 4-(4-(1H-pyrazol-4-yl)phenyl)-1-(1-phenylethyl)-1H-1,2,4-triazol-5(4H)-one], 250 to 2000 nM; that for `O=c1n(Cc2cc(F)ccc2F)cnn1-c1ccc(-c2cn[nH]c2)cc1` [Example 20, 1-(4-(1H-pyrazol-4-yl)phenyl)-4-(2,5-difluorobenzyl)-1H-1,2,4-triazol-5(4H)-one], 5 to 50 nM.

`COc1cc(-c2cn[nH]c2)ccc1-n1cnn(Cc2cccc(F)c2)c1=O` [Example 12, 1-(3-fluorobenzyl)-4-(2-methoxy-4-(1H-pyrazol-4-yl)phenyl)-1H-1,2,4-triazol-5(4H)-one] registered an IC50 of 50 to 250 nM.

Compound `Cc1nn(-c2ccc(-c3cn[nH]c3)cc2)c(=O)n1Cc1cccc(OC(F)F)c1` [Example 102, 1-(4-(1H-pyrazol-4-yl)phenyl)-4-(3-(difluoromethoxy)benzyl)-3-methyl-1H-1,2,4-triazol-5(4H)-one] returned a concentration for half-maximal inhibition (IC50) of 50 to 250 nM. Under `Cc1nn(-c2ccc(-c3cn[nH]c3)cc2)c(=O)n1Cc1cc(F)cc(F)c1` [Example 96, 1-(4-(1H-pyrazol-4-yl)phenyl)-4-(3,5-difluorobenzyl)-3-methyl-1H-1,2,4-triazol-5(4H)-one] stands 5 to 50 nM.

The compound `COc1cc(F)cc(Cn2nc(C)n(-c3ccc(-c4cn[nH]c4)cc3)c2=O)c1` [Example 72, 4-(4-(1H-pyrazol-4-yl)phenyl)-1-(3-fluoro-5-methoxybenzyl)-3-methyl-1H-1,2,4-triazol-5(4H)-one] yielded a concentration for half-maximal inhibition (IC50) of 250 to 2000 nM. Under `CC(C)(O)c1nn(-c2ccc(-c3cn[nH]c3)cc2)c(=O)n1Cc1cccc(OC(F)F)c1` [Example 139, 1-(4-(1H-pyrazol-4-yl)phenyl)-4-(3-(difluoromethoxy)benzyl)-3-(2-hydroxypropan-2-yl)-1H-1,2,4-triazol-5(4H)-one] stands 50 to 250 nM; under `CC(O)c1nn(-c2ccc(-c3cn[nH]c3)cc2)c(=O)n1Cc1ccccc1` (single isomer, unassigned) [Example 140, 1-(4-(1H-pyrazol-4-yl)phenyl)-4-benzyl-3-(1-hydroxyethyl)-1H-1,2,4-triazol-5(4H)-one], 5 to 50 nM. Under `COc1cc(-n2c(C)nn(Cc3cccc(F)c3)c2=O)ccc1-c1cn[nH]c1` [Example 65, 1-(3-fluorobenzyl)-4-(3-methoxy-4-(1H-pyrazol-4-yl)phenyl)-3-methyl-1H-1,2,4-triazol-5(4H)-one] stands 250 to 2000 nM; under `COc1cc(F)cc(Cn2cnn(-c3ccc(-c4cn[nH]c4)cc3)c2=O)c1` [Example 21, 1-(4-(1H-pyrazol-4-yl)phenyl)-4-(3-fluoro-5-methoxybenzyl)-1H-1,2,4-triazol-5(4H)-one], less than 5 nM. For `COc1cc(-c2cn[nH]c2)ccc1-n1c(C)nn(C(C)c2ccccc2)c1=O` (stereo not shown) [Example 75, 4-(2-methoxy-4-(1H-pyrazol-4-yl)phenyl)-3-methyl-1-(1-phenylethyl)-1H-1,2,4-triazol-5(4H)-one], the IC50 fell in the range of 250 to 2000 nM.

In the case of `COc1cc(F)cc(Cn2c(CN(C)C)nn(-c3ccc(-c4cn[nH]c4)cc3)c2=O)c1` [Example 148, 1-(4-(1H-pyrazol-4-yl)phenyl)-3-((dimethylamino)methyl)-4-(3-fluoro-5-methoxybenzyl)-1H-1,2,4-triazol-5(4H)-one], the IC50 fell in the range of 5 to 50 nM.

Compound `COc1cccc(Cn2ncn(-c3ccc(-c4cn[nH]c4)cc3)c2=O)c1` [Example 3, 4-(4-(1H-pyrazol-4-yl)phenyl)-1-(3-methoxybenzyl)-1H-1,2,4-triazol-5(4H)-one] returned an IC50 of 50 to 250 nM. In turn, `Cc1nn(-c2ccc(-c3cn[nH]c3)cc2)c(=O)n1Cc1ccccc1` [Example 79, 1-(4-(1H-pyrazol-4-yl)phenyl)-4-benzyl-3-methyl-1H-1,2,4-triazol-5(4H)-one] gave an IC50 of 5 to 50 nM. Under `COc1cc(-n2ncn(Cc3cc(F)ccc3F)c2=O)ccc1-c1cn[nH]c1` [Example 25, 4-(2,5-difluorobenzyl)-1-(3-methoxy-4-(1H-pyrazol-4-yl)phenyl)-1H-1,2,4-triazol-5(4H)-one] stands 5 to 50 nM; under `COc1cc(-n2ncn(Cc3c(F)cccc3F)c2=O)ccc1-c1cn[nH]c1` [Example 39, 4-(2,6-difluorobenzyl)-1-(3-methoxy-4-(1H-pyrazol-4-yl)phenyl)-1H-1,2,4-triazol-5(4H)-one], 5 to 50 nM; under `O=c1n(Cc2ccccc2F)cnn1-c1ccc(-c2cn[nH]c2)cc1` [Example 28, 1-(4-(1H-pyrazol-4-yl)phenyl)-4-(2-fluorobenzyl)-1H-1,2,4-triazol-5(4H)-one], 5 to 50 nM.

`COc1cccc(Cn2c(C)nn(-c3ccc(-c4cn[nH]c4)cc3)c2=O)c1F` [Example 122, 1-(4-(1H-pyrazol-4-yl)phenyl)-4-(2-fluoro-3-methoxybenzyl)-3-methyl-1H-1,2,4-triazol-5(4H)-one] came in with an IC50 of 250 to 2000 nM.

On to `COc1cccc(Cn2nnn(-c3ccc(-c4cn[nH]c4)cc3)c2=O)c1` [Example 172, 1-(4-(1H-pyrazol-4-yl)phenyl)-4-(3-methoxybenzyl)-1H-tetrazol-5(4H)-one], for which the IC50 lay in the range of 5 to 50 nM.

With `CC(c1ccccc1)n1nnn(-c2ccc(-c3cn[nH]c3)cc2)c1=O` (stereo not shown) [Example 176, 1-(4-(1H-pyrazol-4-yl)phenyl)-4-(1-phenylethyl)-1H-tetrazol-5(4H)-one], the IC50 lay in the range of 5 to 50 nM.

With `CCc1cc(-n2ncn(Cc3ccccc3F)c2=O)ccc1-c1cn[nH]c1` [Example 42, 1-(3-ethyl-4-(1H-pyrazol-4-yl)phenyl)-4-(2-fluorobenzyl)-1H-1,2,4-triazol-5(4H)-one], the IC50 was 250 to 2000 nM. On to `N#Cc1cccc(Cn2cnn(-c3ccc(-c4cn[nH]c4)cc3)c2=O)c1` [Example 34, 3-((1-(4-(1H-pyrazol-4-yl)phenyl)-5-oxo-1H-1,2,4-triazol-4(5H)-yl)methyl)benzonitrile], for which the IC50 lay in the range of 50 to 250 nM. Compound `COc1ccc(Cn2c(CO)nn(-c3ccc(-c4cn[nH]c4)cc3)c2=O)cc1F` [Example 159, 1-(4-(1H-pyrazol-4-yl)phenyl)-4-(3-fluoro-4-methoxybenzyl)-3-(hydroxymethyl)-1H-1,2,4-triazol-5(4H)-one] had an IC50 of 250 to 2000 nM. Under `COc1cc(-n2ncn(Cc3cc(F)cc(F)c3)c2=O)ccc1-c1cn[nH]c1` [Example 36, 4-(3,5-difluorobenzyl)-1-(3-methoxy-4-(1H-pyrazol-4-yl)phenyl)-1H-1,2,4-triazol-5(4H)-one] stands 5 to 50 nM; under `COc1cc(-n2ncn(Cc3ccccc3)c2=O)ccc1-c1cn[nH]c1` [Example 23, 4-benzyl-1-(3-methoxy-4-(1H-pyrazol-4-yl)phenyl)-1H-1,2,4-triazol-5(4H)-one], less than 5 nM; under `O=c1n(-c2ccc(-c3cn[nH]c3)cc2)cnn1Cc1cccc(F)c1` [Example 1, 4-(4-(1H-pyrazol-4-yl)phenyl)-1-(3-fluorobenzyl)-1H-1,2,4-triazol-5(4H)-one], 50 to 250 nM. Under `COc1cccc(Cn2ncn(-c3ccc(-c4cn[nH]c4)c(OC)c3)c2=O)c1` [Example 6, 4-(3-methoxy-4-(1H-pyrazol-4-yl)phenyl)-1-(3-methoxybenzyl)-1H-1,2,4-triazol-5(4H)-one] stands 5 to 50 nM; under `COc1cc(F)cc(Cn2c(C)nn(-c3ccc(-c4cn[nH]c4)cc3)c2=O)c1` [Example 83, 1-(4-(1H-pyrazol-4-yl)phenyl)-4-(3-fluoro-5-methoxybenzyl)-3-methyl-1H-1,2,4-triazol-5(4H)-one], less than 5 nM.

The IC50 is the concentration that gives 50% inhibition. High values mean a need for much substance, low ones inhibition by little substance.
